# Entries after “also recorded” stand apart in the source; their conditions may differ.
# How the values were obtained:
# binding of DhdR to dhdO = assay: Analysis of DhdR effector by electrophoretic mobility shift assays; parameters: species or system Achromobacter denitrificans NBRC 15125; settings: 40 mM compound, 70 nM DhdR, dhdO target DNA, EMSA, FIG. 2
# Description: DhdR is incubated with different compounds (D-2-HG, L-2-HG, D-malate, D-lactate, glutarate, 2-ketoglutarate, or pyruvate) respectively. Then, the target DNA fragment dhdO is added. The influence on the binding capacity of DhdR and the target DNA fragment dhdO in the presence of the different compounds is analyzed through electrophoresis separation, staining, and imaging.
# (§1) The dhdO nucleotide fragment obtained in step (2) above was diluted to 100 nM using binding buffer, and the purified DhdR protein was diluted to 2000 nM. 70 nM purified DhdR protein was first incubated with 40 mM different compounds (D-2-HG, L-2-HG, D-malate, D-lactate, glutarate, 2-ketoglutarate, or pyruvate) at 30° C. for 15 minutes in 18 μL binding buffer. Subsequently, 2 μL of 100 nM dhdO was added and incubated at 30° C. for another 30 min. 10 μL of the sample was analyzed by electrophoresis with 6% native polyacrylamide at 170 V for 45 min on ice. The gel was then stained with SYBR Green I for 30 min avoiding light and photographed by gel imager. […] DhdR can bind to dhdO in the absence of D-2-HG. However, when D-2-HG is present, DhdR will be dissociated from dhdO.
# DhdR [1] = target: T1, DhdR (Achromobacter denitrificans NBRC 15125); assay: EMSA; 70 nM DhdR, 10 nM dhdO, 30 C; 40 mM D-2-HG inhibits binding; L-2-HG, D-malate, D-lactate, glutarate, 2-ketoglutarate, pyruvate do not; settings: tags: His6 (pETDuet-1, E. coli BL21(DE3))
# T1 chain: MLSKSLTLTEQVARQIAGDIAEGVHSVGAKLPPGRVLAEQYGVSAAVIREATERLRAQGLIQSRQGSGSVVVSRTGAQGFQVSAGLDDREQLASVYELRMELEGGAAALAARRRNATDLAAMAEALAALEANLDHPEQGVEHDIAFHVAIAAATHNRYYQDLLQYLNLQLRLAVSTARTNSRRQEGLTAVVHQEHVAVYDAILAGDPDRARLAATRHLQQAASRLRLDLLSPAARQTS
# Description: as §1
# DhdR [2] = target: T1, DhdR; assay: AlphaScreen-type bead luminescence, HBS-P pH 7.4; D-2-HG dissociates complex, LOD 0.8 uM, range about 2-50 uM; settings: tags: His6 (pETDuet-1, E. coli BL21(DE3)); label: 5'-biotin
# Description: According to the method of detecting the luminescence signal described in (2), a gradient D-2-HG solution dissolved in HBS-P buffer was used and mixed with 5 μL of 1 nM biotinylated dhdO fragment, 0.3 nM DhdR protein, donor beads, and acceptor beads. The luminescence signal was detected to plot the dose-response curves.
# The combination of the 1 nM biotinylated dhdO fragment, 0.3 nM DhdR protein, 20 μg/mL donor beads, and 20 μg/mL acceptor beads was named as D-2-HG biosensor BD2HG-0, with a limit of detection of 0.8 μM and a detection range of about 2-50 μM.
# DhdR [3] = target: T1, DhdR; assay: AlphaScreen-type bead luminescence, HBS-P pH 7.4; D-2-HG dissociates complex, LOD 0.08 uM, range about 0.3-20 uM; settings: tags: His6 (pETDuet-1, E. coli BL21(DE3)); label: 5'-biotin
# Description: 5 μL biotinylated dhdO-1 fragment, 5 μL DhdR protein and 5 μL solution containing D-2-HG were added into a white 384-well plate, mixed evenly by the oscillation function of a microplate reader, and incubated in dark at room temperature for 30 minutes. Then, 5 μL acceptor beads (20 μg/mL) were added and incubated in dark at room temperature for 30 minutes. Finally, 5 μL donor beads (20 μg/mL) were added and incubated in dark at room temperature for 60 minutes. The luminescence signal was measured by EnSight Multimode Plate Reader. The excitation wavelength was 680 nm and the detection wavelength was 520-620 nm. The background signal without a D-2-HG biosensor was deducted at each emission wavelength.
# According to the method of detecting the luminescence signal described in (2), a gradient D-2-HG solution dissolved in HBS-P buffer was used and mixed with 5 μL of 1 nM biotinylated dhdO-1 fragment, 0.3 nM DhdR protein, donor beads, and acceptor beads. The luminescence signal was detected to plot the dose-response curves.
Molecule,effect on the binding of DhdR to dhdO (binding of DhdR to dhdO),also measured
"O=C(O)CC[C@H](O)C(=O)O [L-2-HG, L-2-hydroxyglutarate]",could not interfere with the binding of DhdR to dhdO,–
"O=C(O)CC[C@@H](O)C(=O)O [D-2-HG, D-2-Hydroxyglutarate]",prevents the binding of DhdR and the target DNA fragment dhdO; also recorded: could inhibit the binding of DhdR to dhdO,–
O=C(O)C[C@@H](O)C(=O)O [D-malate],could not interfere with the binding of DhdR to dhdO,–
O=C(O)CCC(=O)C(=O)O [2-ketoglutarate],could not interfere with the binding of DhdR to dhdO,–
C[C@@H](O)C(=O)O [D-lactate],could not interfere with the binding of DhdR to dhdO,–
dhdO (dsDNA) DNA 1: GAGTCGCGGCGGCGCGCCGGATCCGGGCTGTCATTGTCAAAAGTTATCAGATAACCTGAAAAGTAGGCCTATAATCGGCGC DNA 2: GCGCCGATTATAGGCCTACTTTTCAGGTTATCTGATAACTTTTGACAATGACAGCCCGGATCCGGCGCGCCGCCGCGACTC,–,binding result (DhdR [1]): binds
biotinylated dhdO (dsDNA) DNA 1: GAGTCGCGGCGGCGCGCCGGATCCGGGCTGTCATTGTCAAAAGTTATCAGATAACCTGAAAAGTAGGCCTATAATCGGCGC DNA 2: GCGCCGATTATAGGCCTACTTTTCAGGTTATCTGATAACTTTTGACAATGACAGCCCGGATCCGGCGCGCCGCCGCGACTC,–,binding result (DhdR [2]): binds
biotinylated dhdO-1 (dsDNA) DNA 1: GAGTCGCGGCGGCGCGCCGGATCCGGGCTGTCATTGTCAAAATTTATCAGATAACCTGAAAAGTAGGCCTATAATCGGCGC DNA 2: GCGCCGATTATAGGCCTACTTTTCAGGTTATCTGATAAATTTTGACAATGACAGCCCGGATCCGGCGCGCCGCCGCGACTC,–,binding result (DhdR [3]): binds
